Results published in patent publication US20080027027A1, “Lactosucrose High Content Saccharide, Its Preparation and Uses” (priority 2004, published 2008).
Where two headings read alike, the source gives them in different places.

What was measured:
[1] = crystal obtained from 90% (v/v) ethanol solution, Avigad 1957; cited from earlier work
[2] = Hygroscopicity of solid lactosucrose products under high temperature and humidity; assay type: physicochemical
Text: While, it has been known that a powdery saccharide, comprising lactosucrose with a lowered hygroscopicity and relatively high stability, can be obtained by elevating the purity of lactosucrose (see Japanese Patent Kokai No. 281,795/92).
To solve the above objects, the present inventors studied on a process for producing lactosucrose, using β-fructofuranosidase, from the viewpoints of the origin of β-fructofuranosidase and reaction condition as well as the combination with sucrose-unassimilable yeast. It has been thought that the lactosucrose content in the reaction mixture reaches maximum about 65%, on a saccharide composition basis, even in the case of using β-fructofuranosidase and invertase-deficient yeast.
According to conventional methods, lactosucrose high content fraction, obtained by the method in Example 4, was filtrated, deionized using ion-exchange resin, decolored using activated charcoal, and concentrated under a reduced pressure to give a moisture content of about 25% (w/w). The resulting concentrate was placed in a crystallizer, admixed with 1% (w/w) of seed crystal and gradually cooled to about 30° C. in 24 hours. The resulting massecuite was centrifuged and crystalline lactosucrose pentahydrate was obtained in a yield of about 40%. […]

hygroscopicity ([2]; 27° C. and a relative humidity of 75%) | hygroscopicity ([2]; condition of high-temperature and humidity in summer) | SMILES | hygroscopicity [1]
– | – | O.O.O.O.O.OCC1OC(OC2C(CO)OC(OC3(CO)OC(CO)C(O)C3O)C(O)C2O)C(O)C(O)C1O (stereo not drawn) [crystalline lactosucrose pentahydrate] | strong hygroscopicity
low hygroscopicity | no substantial hygroscopicity | OC[C@H]1O[C@@H](O[C@H]2[C@H](O)[C@@H](O)[C@@H](O[C@]3(CO)O[C@H](CO)[C@@H](O)[C@@H]3O)O[C@@H]2CO)[C@H](O)[C@@H](O)[C@H]1O [crystalline lactosucrose, β-D-galactosyl-(1,4)-α-D-glucosyl-(1,2)-β-D-fructoside] | –
